Source: patent publication US20230145868A1, “UREA INHIBITORS OF MICRO-RNA” (Board of Regents, The University of Texas System, priority 2020, published 2023)

What was measured:
pre-miR-10b = assay: RT-qPCR of precursor miR-10b; assay type: cell-based, human; conditions: AGS gastric cell line; normalized to U6; vs DMSO
Procedure: (§1) Potential small molecule miRNA inhibitors were tested in MCF7 cells, a metastatic cell line (MM231) and an HCC cell line (HepG2) through RT-qPCR. Cells were seeded in 12-well plates 24 h before treatments at a confluence of 50-60%. They were treated at a concentration of 10 μM linifanib (positive control) or DMSO (negative control), and RNA was collected after 24 and 48 h. MicroRNA expression was tested using TaqMan microRNA assay (Applied Biosystems). The cDNA was synthesized using TaqMan Reverse Transcription Reagents kit (Applied Biosystems) and employed for quantitative RT-qPCR analysis together with TaqMan probes and SsoFastSupermix (Bio-rad). Primers and probes were purchased for hsa-miR-10b, hsa-pri-miR-10b, U6, and U48 snRNA that was used as an internal control.
(§2) To detect the levels of the precursor sequences, cDNA was synthesized using the SuperScript III cDNA kit (Invitrogen). Diluted cDNA was used for RT-qPCR analysis using iQ SYBR Green Supermix (Bio-Rad) with primers designed by in-house. Experiments were performed in triplicate; treated samples were compared to the DMSO-treated controls and normalized to the internal control. Relative expression levels were calculated using the 2-ΔCt method.

miR-10b [1] = assay: Luciferase reporter assay of miR-10b inhibition, MDA-MB-231 cells; assay type: cell-based; conditions: Homo sapiens, MDA-MB-231, 48 h
Source text: (§3) To identify miR-10b inhibitors, a luciferase reporter system was designed with complementary oligonucleotides for miR-10b.This luciferase reporter would repress Renilla luciferase signal in the presence of a functional mature miR-10b. However, in the presence of a small molecule that can inhibit mature miR-10b expression or affect its downstream function, the luciferase expression is restored again.
(§4) The PsiCHECK™-2 luciferase reporter vector was acquired from Promega™, Complementary oligonucleotides for hsa-miR-10b were designed based on the mature miRNA sequence and obtained from Thermo Fisher Scientific. In the design of the microRNA target sequence, several base pairs were added to have two different restriction sites recognizable by the enzyme SgfI at one side, and PmeI on the other (present in the vector as well). In addition, the insert was designed with a restriction site for SacI enzyme in order to have an additional site to digest the vector when monitoring colonies for the presence/absence of the insert. The designed oligonucleotides were annealed as follows: Complementary strands were mixed at a 1:1 molar ratio in a micro centrifuge tube. The mixture was diluted to a final concentration of 1 pmol/μl with a buffer solution of 10 mM Tris, 1 mM EDTA, and 50 mM NaCl (pH 8.0). Mixes were incubated at 95° C. for 5 min, and then the heat was reduced gradually for 70 min, until reaching 4° C. The annealed oligonucleotides were digested along with the PsiCHECK™2 vector with SgfI and PmeI and ligated at the 3′-UTR (downstream) of the Renilla luciferase reporter gene in the PsiCHECK™-2vector. Insert sequences were further confirmed in two ways: enzymatic digestion and sequencing.
(§5) MCF7 cells were seeded 24 h prior to transfection in 96 well plates (2.0×10^4 cells/well). For testing the sensitivity of the assay, antagomiRs and pre-miRs against miR-10b were used at a final concentration of 100 nM. For testing small molecule miRNA inhibitors, the compounds of interest were added to a final concentration of 10 μM. The assay was done in MCF7 or MDA-MB-231 cells at approximately 60% confluence using Lipofectamine in Opti-Mem media with the final vector concentration of 250 ng/mL. All transfections were performed in triplicate for statistical analysis. The cells were incubated at 37° C. for 6 h, followed by replacement of the transfected media with fresh media. After 48 h incubation, the media was removed, and cells were lysed and assayed with a Dual Luciferase Assay Kit (Promega) using a Vi-Tech luminometer. The ratio of Renilla to firefly luciferase expression was calculated for each of the triplicates.

miR-10b [2] = assay: Luciferase reporter assay of miR-10b inhibition, MCF7 cells; assay type: cell-based; conditions: Homo sapiens, MCF7, 48 h
Source text: as §3, §4, §5

mature miR-10b = assay: RT-qPCR of mature miR-10b; assay type: cell-based, human; conditions: AGS gastric cell line; normalized to U6; vs DMSO
Procedure: as §1, §2

[3] = Table 5, MDA-MB-231, 10 μM compound, vs negative control (DMSO), mean of triplicate, read-out: n-fold increase in luciferase expression, Mean
[4] = Table 5, MDA-MB-231, 10 μM compound, vs negative control (DMSO), replicate #1, read-out: n-fold increase in luciferase expression, #1
[5] = Table 5, MDA-MB-231, 10 μM compound, vs negative control (DMSO), replicate #2, read-out: n-fold increase in luciferase expression, #2
[6] = Table 5, MDA-MB-231, 10 μM compound, vs negative control (DMSO), replicate #3, read-out: n-fold increase in luciferase expression, #3
[7] = Table 7, MDA-MB-231, second biological replicant, 10 μM compound, mean of triplicate, read-out: n-fold increase in luciferase expression, Mean
[8] = Table 7, MDA-MB-231, second biological replicant, 10 μM compound, replicate #1, read-out: n-fold increase in luciferase expression, #1
[9] = Table 7, MDA-MB-231, second biological replicant, 10 μM compound, replicate #2, read-out: n-fold increase in luciferase expression, #2
[10] = Table 7, MDA-MB-231, second biological replicant, 10 μM compound, replicate #3, read-out: n-fold increase in luciferase expression, #3
[11] = Table 3, MCF7, 10 μM compound, vs negative control (DMSO), mean of triplicate, read-out: n-fold increase in luciferase expression, Mean
[12] = Table 3, MCF7, 10 μM compound, vs negative control (DMSO), replicate #1, read-out: n-fold increase in luciferase expression, #1
[13] = Table 3, MCF7, 10 μM compound, vs negative control (DMSO), replicate #2, read-out: n-fold increase in luciferase expression, #2
[14] = Table 3, MCF7, 10 μM compound, vs negative control (DMSO), replicate #3, read-out: n-fold increase in luciferase expression, #3
[15] = Table 6, MCF7, second biological replicant, 10 μM compound, mean of triplicate, read-out: n-fold increase in luciferase expression, Mean
[16] = Table 6, MCF7, second biological replicant, 10 μM compound, replicate #1, read-out: n-fold increase in luciferase expression, #1
[17] = Table 6, MCF7, second biological replicant, 10 μM compound, replicate #2, read-out: n-fold increase in luciferase expression, #2
[18] = Table 6, MCF7, second biological replicant, 10 μM compound, replicate #3, read-out: n-fold increase in luciferase expression, #3
[19] = Table 4, MCF7, 10 μM compound, vs negative control (DMSO), mean of triplicate, read-out: n-fold increase in luciferase expression, Mean
[20] = Table 4, MCF7, 10 μM compound, vs negative control (DMSO), replicate #1, read-out: n-fold increase in luciferase expression, #1
[21] = Table 4, MCF7, 10 μM compound, vs negative control (DMSO), replicate #2, read-out: n-fold increase in luciferase expression, #2
[22] = Table 4, MCF7, 10 μM compound, vs negative control (DMSO), replicate #3, read-out: n-fold increase in luciferase expression, #3

## Cc1ccc(F)c(NC(=O)Nc2ccc(-c3cnc(N)nc3)cc2)c1 [Example 5, 1-(4-(2-aminopyrimidin-5-yl)phenyl)-3-(2-fluoro-5-methylphenyl)urea]
pre-miR-10b
  expression of pre-miR-10b: increased expression of pre-miR-10b
miR-10b [1]; [3]
  fold induction at 10 µM: 1.04
miR-10b [1]; [4]
  fold induction at 10 µM: 1.13
miR-10b [1]; [5]
  fold induction at 10 µM: 1.01
miR-10b [1]; [6]
  fold induction at 10 µM: 0.99
miR-10b [1]; [7]
  fold induction at 10 µM: 1.3
miR-10b [1]; [8]
  fold induction at 10 µM: 0.26
miR-10b [1]; [9]
  fold induction at 10 µM: 1.57
miR-10b [1]; [10]
  fold induction at 10 µM: 2.06
miR-10b [2]; [11]
  fold induction at 10 µM: 2.86
miR-10b [2]; [12]
  fold induction at 10 µM: 1.99
miR-10b [2]; [13]
  fold induction at 10 µM: 1.49
miR-10b [2]; [14]
  fold induction at 10 µM: 5.1
miR-10b [2]; [15]
  fold induction at 10 µM: 2.12
miR-10b [2]; [16]
  fold induction at 10 µM: 3.03
miR-10b [2]; [17]
  fold induction at 10 µM: 1.73
miR-10b [2]; [18]
  fold induction at 10 µM: 1.59
Mature miR-10b
  level of mature miR-10b: reduce the level of mature miR-10b

## Cc1ccc(F)c(NC(=O)Nc2ccc(-c3cccc4[nH]ncc34)cc2)c1 [Example 3, 1-(4-(1H-indazol-4-yl)phenyl)-3-(2-fluoro-5-methylphenyl)urea]
miR-10b [1]; [3]
  fold induction at 10 µM: 0.46
miR-10b [1]; [4]
  fold induction at 10 µM: 0.423
miR-10b [1]; [5]
  fold induction at 10 µM: 0.643
miR-10b [1]; [6]
  fold induction at 10 µM: 0.312
miR-10b [1]; [7]
  fold induction at 10 µM: 0.17
miR-10b [1]; [8]
  fold induction at 10 µM: 0.193
miR-10b [1]; [9]
  fold induction at 10 µM: 0.149
miR-10b [1]; [10]
  fold induction at 10 µM: 0.163
miR-10b [2]; [11]
  fold induction at 10 µM: 0.26
miR-10b [2]; [12]
  fold induction at 10 µM: 0.238
miR-10b [2]; [13]
  fold induction at 10 µM: 0.246
miR-10b [2]; [14]
  fold induction at 10 µM: 0.292
miR-10b [2]; [15]
  fold induction at 10 µM: 0.18
miR-10b [2]; [16]
  fold induction at 10 µM: 0.257
miR-10b [2]; [17]
  fold induction at 10 µM: 0.176
miR-10b [2]; [18]
  fold induction at 10 µM: 0.117

## Cc1ccc(F)c(NC(=O)Nc2ccc(-c3ccccn3)cc2)c1 [Example 8, 1-(2-fluoro-5-methylphenyl)-3-(4-(pyridin-2-yl)phenyl)urea]
miR-10b [1]; [3]
  fold induction at 10 µM: 0.78
miR-10b [1]; [4]
  fold induction at 10 µM: 0.566
miR-10b [1]; [5]
  fold induction at 10 µM: 0.991
miR-10b [1]; [6]
  fold induction at 10 µM: 0.793
miR-10b [1]; [7]
  fold induction at 10 µM: 1.15
miR-10b [1]; [8]
  fold induction at 10 µM: 1.39
miR-10b [1]; [9]
  fold induction at 10 µM: 1
miR-10b [1]; [10]
  fold induction at 10 µM: 1.05
miR-10b [2]; [19]
  fold induction at 10 µM: 3.92
miR-10b [2]; [20]
  fold induction at 10 µM: 4.6
miR-10b [2]; [21]
  fold induction at 10 µM: 6.07
miR-10b [2]; [22]
  fold induction at 10 µM: 1.08
miR-10b [2]; [15]
  fold induction at 10 µM: 1.24
miR-10b [2]; [16]
  fold induction at 10 µM: 1.82
miR-10b [2]; [17]
  fold induction at 10 µM: 1.04
miR-10b [2]; [18]
  fold induction at 10 µM: 0.857

## Cc1ccc(F)c(NC(=O)Nc2ccc(-c3cccc4c3NC(=O)C4)cc2)c1 [Example 7, 1-(2-fluoro-5-methylphenyl)-3-(4-(2-oxoindolin-7-yl)phenyl)urea]
miR-10b [1]; [3]
  fold induction at 10 µM: 1.05
miR-10b [1]; [4]
  fold induction at 10 µM: 1.01
miR-10b [1]; [5]
  fold induction at 10 µM: 1.09
miR-10b [1]; [6]
  fold induction at 10 µM: 1.05
miR-10b [1]; [7]
  fold induction at 10 µM: 1.19
miR-10b [1]; [8]
  fold induction at 10 µM: 1.16
miR-10b [1]; [9]
  fold induction at 10 µM: 1.31
miR-10b [1]; [10]
  fold induction at 10 µM: 1.11
miR-10b [2]; [19]
  fold induction at 10 µM: 2.41
miR-10b [2]; [20]
  fold induction at 10 µM: 1.34
miR-10b [2]; [21]
  fold induction at 10 µM: 5.06
miR-10b [2]; [22]
  fold induction at 10 µM: 0.822
miR-10b [2]; [15]
  fold induction at 10 µM: 1.25
miR-10b [2]; [16]
  fold induction at 10 µM: 1.86
miR-10b [2]; [17]
  fold induction at 10 µM: 0.957
miR-10b [2]; [18]
  fold induction at 10 µM: 0.935

## Nc1n[nH]c2cccc(-c3ccc(NC(=O)Nc4ccncc4)cc3)c12 [Example 9, 1-(4-(3-amino-1H-indazol-4-yl)phenyl)-3-(pyridin-4-yl)urea]
miR-10b [1]; [3]
  fold induction at 10 µM: 1.41
miR-10b [1]; [4]
  fold induction at 10 µM: 1.14
miR-10b [1]; [5]
  fold induction at 10 µM: 2.05
miR-10b [1]; [6]
  fold induction at 10 µM: 1.05
miR-10b [1]; [7]
  fold induction at 10 µM: 1.56
miR-10b [1]; [8]
  fold induction at 10 µM: 1.39
miR-10b [1]; [9]
  fold induction at 10 µM: 1.61
miR-10b [1]; [10]
  fold induction at 10 µM: 1.67
miR-10b [2]; [19]
  fold induction at 10 µM: 2.11
miR-10b [2]; [20]
  fold induction at 10 µM: 0.94
miR-10b [2]; [21]
  fold induction at 10 µM: 4.2
miR-10b [2]; [22]
  fold induction at 10 µM: 1.2
miR-10b [2]; [15]
  fold induction at 10 µM: 1.29
miR-10b [2]; [16]
  fold induction at 10 µM: 2.17
miR-10b [2]; [17]
  fold induction at 10 µM: 0.859
miR-10b [2]; [18]
  fold induction at 10 µM: 0.84
